Source: patent US11226337B2, “Chemoproteomic profiling of protein electrophilic and oxidative post-translational modifications” (Zenagem, LLC, priority 2017, dated 2022)

What was measured:
Assay in all cases: gel-based RP-ABPP of transfected HEK293T cells
Type in all cases: cell-based
Conditions in all cases: transfected HEK293T cells vs mock
KEAP1 = target: T1, KEAP1 (Homo sapiens, UniProt Q14145)
T1 construct: Full-length genes encoding three probe 1- and one probe 2-targeted proteins were amplified from a cDNA library; expressed in transfected cells; host or cells: HEK293T
T1 sequence (Q14145 whole entry): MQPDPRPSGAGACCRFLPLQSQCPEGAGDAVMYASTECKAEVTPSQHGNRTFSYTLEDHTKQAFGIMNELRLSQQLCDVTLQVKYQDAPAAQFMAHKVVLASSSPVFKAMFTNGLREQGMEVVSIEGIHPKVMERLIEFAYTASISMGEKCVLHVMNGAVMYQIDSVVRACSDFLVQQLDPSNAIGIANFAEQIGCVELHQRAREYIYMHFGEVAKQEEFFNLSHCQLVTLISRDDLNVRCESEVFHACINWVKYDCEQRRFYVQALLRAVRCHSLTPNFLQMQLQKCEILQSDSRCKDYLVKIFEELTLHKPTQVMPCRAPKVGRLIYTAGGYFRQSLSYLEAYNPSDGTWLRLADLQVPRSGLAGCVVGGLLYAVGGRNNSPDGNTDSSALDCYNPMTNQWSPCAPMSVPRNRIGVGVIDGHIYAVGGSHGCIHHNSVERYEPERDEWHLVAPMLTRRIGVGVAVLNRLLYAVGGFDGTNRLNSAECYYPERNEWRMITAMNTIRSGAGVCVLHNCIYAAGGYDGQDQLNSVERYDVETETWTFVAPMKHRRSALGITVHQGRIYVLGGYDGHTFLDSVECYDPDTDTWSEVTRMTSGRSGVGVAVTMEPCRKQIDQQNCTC
Method: (§1) Soluble proteomes from treated cells were diluted to 1 mg/mL. To each sample (50 μL), a freshly prepared “click” or CuAAC reagent mixture (6 μL) containing 0.1 mM tris(benzyltriazolylmethyl)amine (TBTA) (3 μL/sample, 1.7 mM in 4:1 DMSO:t-BuOH), 1 mM CuSO4 (1 μL/sample, 50 mM in H2O), 25 μM azide-rhodamine (1 μL/sample, 1.25 mM in DMSO), and freshly prepared 1 mM tris(2-carboxyethyl)phosphine (TCEP) (1 μL/sample, 50 mM in PBS or H2O) was added to conjugate the fluorophore to probe-labelled proteins. TBTA was purchased from TCI and azide-rhodamine was synthesized as previously described^64. Upon addition of the click mixture, each reaction was immediately mixed by vortexing and then allowed to react at ambient temperature for 1 hour before quenching the reactions with SDS loading buffer (4× stock, 17 μL). Proteins (˜25 μg total protein loaded per gel lane) were resolved by SDS-PAGE (10% acrylamide) and visualized by in-gel fluorescence scanning on a Hitachi FMBIO-II or BioRad ChemiDoc MP flatbed fluorescence scanner.
(§2) Full-length genes encoding three probe 1- and one probe 2-targeted proteins were amplified from a cDNA library derived from the same low-passage HEK293T cells used for proteomic profiling. The library was generated using Ribozol RNA extraction (Amresco) and iScript reverse transcription (Bio-rad) supermix reagents. The gene products were cloned into mammalian expression vectors containing N- or C-terminal FLAG affinity tags. The gene for S-adenosyl-L-methionine decarboxylase (AMD1 or AdoMetDC) was cloned into pFLAG-CMV-sport6 (N-terminal tag) at NotI and SalI restriction sites. AMD1, Secernin-3 (SCRN3) and fat mass- and obesity-associated Fe(II)- and 20G-dependent dioxygenase (FTO) were cloned into pRK5 (C-terminal tag) at SalI and NotI restriction sites. Kelch-like ECH-associated protein-1 (Keapl) (N-terminal tag), and empty plasmids of pRK5 were gifts. Full sequences of the genes were confirmed. The proteins expressed via transient transfection in HEK293T cells contain an additional 15 amino acids appended to their N-terminal methionine residue or C-terminus (MDYKD4KLKACGR (SEQ ID NO: 43) and A3G4DYKD4K (SEQ ID NO: 44), respectively). The DYKD4K (SEQ ID NO: 42) appendage in each contains the classic FLAG epitope that permits detection by western blotting or purification by affinity chromatography. Mutants of SCRN3 were generated using QuikChange site-directed mutagenesis with primers containing the desired mutations and their respective compliments. The gene for the deletion mutant of SCRN3 with the sequence MetlCys6-SCRN3 instead of Met1 Glu2Pro3Phe4Ser5Cys6-SCRN3 (SEQ ID NO: 45) was amplified from the wild-type C-terminal FLAG-tagged construct and cloned into the same vector.
(§3) HEK293T cells were grown to ˜40% confluence under standard growth conditions passaged in the appropriate media before adding the appropriate expression vector (control cells (‘mock’) received an equal amount of the appropriate empty vector) and polyethyleneimine (PEI) ‘MAX’ (MW 40,000, Polysciences Inc.) as a transfection reagent under standard transfection conditions (3:1 vector/PEI (w/w) ratio). Cells were incubated for ˜48 h before labelling in situ. Proteomes were processed for gel- and MS-based experiments as described above and in Example 2.
(§4) After scanning fluorescence, that same gel was transferred to nitrocellulose membrane in Towbin buffer, the membrane was blocked for ˜1 hour at ambient temperature with 5% nonfat dry milk (w/v) in Tris-buffered saline with Tween 20 (TBST) and incubated with primary antibodies in the same solution overnight at 4° C. The antibodies included anti-FLAG (1:2500, F1804, Sigma), anti-AdoMetDC (1:500, sc-160951, Santa Cruz Biotechnology) and anti-His6 (1:1000, ab18184, Abcam). The blots were washed (3×5 min, TBST), incubated with secondary antibodies (1:10,000, IRDye 800CW, LICOR) in milk for 1 hour at ambient temperature, washed again (3×5 min, TBST), and visualized on a LICOR Odyssey Scanner.

SCRN3 = target: T2, SCRN3 (Homo sapiens, UniProt Q0VDG4)
T2 construct: Full-length genes encoding three probe 1- and one probe 2-targeted proteins were amplified from a cDNA library; expressed in transfected cells; host or cells: HEK293T
T2 sequence (Q0VDG4 6-424): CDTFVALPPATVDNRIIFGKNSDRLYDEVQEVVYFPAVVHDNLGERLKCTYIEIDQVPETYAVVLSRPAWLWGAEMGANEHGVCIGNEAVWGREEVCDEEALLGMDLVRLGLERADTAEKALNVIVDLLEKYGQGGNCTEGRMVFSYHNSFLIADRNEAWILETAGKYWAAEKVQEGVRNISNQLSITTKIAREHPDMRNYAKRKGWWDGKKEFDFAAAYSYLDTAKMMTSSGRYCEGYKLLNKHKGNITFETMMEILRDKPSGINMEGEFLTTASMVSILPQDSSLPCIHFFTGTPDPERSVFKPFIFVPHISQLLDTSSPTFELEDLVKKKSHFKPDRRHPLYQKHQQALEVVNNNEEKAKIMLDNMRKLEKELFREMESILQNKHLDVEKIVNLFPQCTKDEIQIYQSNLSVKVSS
Method: as §1, §2, §3, §4

FTO = target: T3, FTO (Homo sapiens, UniProt Q9C0B1)
T3 construct: Full-length genes encoding three probe 1- and one probe 2-targeted proteins were amplified from a cDNA library; expressed in transfected cells; host or cells: HEK293T
T3 sequence (Q9C0B1 whole entry): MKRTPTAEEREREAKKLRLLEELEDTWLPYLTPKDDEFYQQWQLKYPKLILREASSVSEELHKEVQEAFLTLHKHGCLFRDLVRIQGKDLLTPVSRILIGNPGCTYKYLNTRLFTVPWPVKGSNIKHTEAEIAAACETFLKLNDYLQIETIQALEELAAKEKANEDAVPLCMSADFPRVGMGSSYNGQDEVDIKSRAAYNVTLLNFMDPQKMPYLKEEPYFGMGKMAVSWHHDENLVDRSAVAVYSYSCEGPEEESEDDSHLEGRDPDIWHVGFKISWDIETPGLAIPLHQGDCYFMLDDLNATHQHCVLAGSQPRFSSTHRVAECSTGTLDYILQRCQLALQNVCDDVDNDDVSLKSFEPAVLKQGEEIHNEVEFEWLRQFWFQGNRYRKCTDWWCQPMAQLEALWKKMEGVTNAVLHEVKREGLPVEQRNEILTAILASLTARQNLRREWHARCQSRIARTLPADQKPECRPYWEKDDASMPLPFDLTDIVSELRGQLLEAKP
Method: as §1, §2, §3, §4

AMD1 = target: T4, AMD1 (Homo sapiens, UniProt P17707)
T4 construct: Full-length genes encoding three probe 1- and one probe 2-targeted proteins were amplified from a cDNA library; expressed in transfected cells; host or cells: HEK293T
T4 sequence (P17707 68-334 limits assumed): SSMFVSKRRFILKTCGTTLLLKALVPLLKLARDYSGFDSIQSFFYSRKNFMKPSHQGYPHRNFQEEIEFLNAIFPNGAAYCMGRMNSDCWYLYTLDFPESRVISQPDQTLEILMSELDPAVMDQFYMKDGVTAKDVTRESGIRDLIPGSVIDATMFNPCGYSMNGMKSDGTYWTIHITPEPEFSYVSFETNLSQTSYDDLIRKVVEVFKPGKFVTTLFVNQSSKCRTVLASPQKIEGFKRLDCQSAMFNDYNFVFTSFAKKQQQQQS
T4 sequence (P17707 1-67 limits assumed): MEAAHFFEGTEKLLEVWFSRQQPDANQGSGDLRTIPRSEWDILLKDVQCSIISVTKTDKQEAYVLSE
Method: Soluble proteomes from treated cells were diluted to 1 mg/mL. To each sample (50 μL), a freshly prepared “click” or CuAAC reagent mixture (6 μL) containing 0.1 mM tris(benzyltriazolylmethyl)amine (TBTA) (3 μL/sample, 1.7 mM in 4:1 DMSO:t-BuOH), 1 mM CuSO4 (1 μL/sample, 50 mM in H2O), 25 μM azide-rhodamine (1 μL/sample, 1.25 mM in DMSO), and freshly prepared 1 mM tris(2-carboxyethyl)phosphine (TCEP) (1 μL/sample, 50 mM in PBS or H2O) was added to conjugate the fluorophore to probe-labelled proteins. […] Upon addition of the click mixture, each reaction was immediately mixed by vortexing and then allowed to react at ambient temperature for 1 hour before quenching the reactions with SDS loading buffer (4× stock, 17 μL). Proteins (˜25 μg total protein loaded per gel lane) were resolved by SDS-PAGE (10% acrylamide) and visualized by in-gel fluorescence scanning on a Hitachi FMBIO-II or BioRad ChemiDoc MP flatbed fluorescence scanner. […]
After scanning fluorescence, that same gel was transferred to nitrocellulose membrane in Towbin buffer, the membrane was blocked for ˜1 hour at ambient temperature with 5% nonfat dry milk (w/v) in Tris-buffered saline with Tween 20 (TBST) and incubated with primary antibodies in the same solution overnight at 4° C. […]

Row | Compound | probe labeling of recombinant protein, in-gel fluorescence (KEAP1) | probe labeling of recombinant protein, in-gel fluorescence (SCRN3) | probe labeling of recombinant protein, in-gel fluorescence (FTO) | probe labeling of recombinant protein, in-gel fluorescence (AMD1)
1 | C#CCCNC(=O)c1ccc(NN)cc1.Cl [probe 2, N-(but-3-yn-1-yl)-4-hydrazinylbenzamide hydrochloride] | reacted with both probes 1 and 2 | reacted with both probes 1 and 2 | preferentially targeted by probe 2 | reacted with both probes 1 and 2
2 | C#CCNN.Cl [probe 1, prop-2-yn-1-ylhydrazine hydrochloride] | reacted with both probes 1 and 2 | reacted with both probes 1 and 2 | selective reactivity with the aryl probe 2 over the alkyl probe 1 | reacted with both probes 1 and 2
